Among the data in ChEMBL document CHEMBL2073929, “Interactions of rifamycin SV and rifampicin with organic anion uptake systems of human liver” (Hepatology, 2002) are Km, Activity and Ki values, retold here.

Data set [1] has as its target T1, Solute carrier organic anion transporter family member 1B3 (OATP1B3) (Homo sapiens, UniProt Q9NPD5).
T1 sequence (Q9NPD5 whole entry): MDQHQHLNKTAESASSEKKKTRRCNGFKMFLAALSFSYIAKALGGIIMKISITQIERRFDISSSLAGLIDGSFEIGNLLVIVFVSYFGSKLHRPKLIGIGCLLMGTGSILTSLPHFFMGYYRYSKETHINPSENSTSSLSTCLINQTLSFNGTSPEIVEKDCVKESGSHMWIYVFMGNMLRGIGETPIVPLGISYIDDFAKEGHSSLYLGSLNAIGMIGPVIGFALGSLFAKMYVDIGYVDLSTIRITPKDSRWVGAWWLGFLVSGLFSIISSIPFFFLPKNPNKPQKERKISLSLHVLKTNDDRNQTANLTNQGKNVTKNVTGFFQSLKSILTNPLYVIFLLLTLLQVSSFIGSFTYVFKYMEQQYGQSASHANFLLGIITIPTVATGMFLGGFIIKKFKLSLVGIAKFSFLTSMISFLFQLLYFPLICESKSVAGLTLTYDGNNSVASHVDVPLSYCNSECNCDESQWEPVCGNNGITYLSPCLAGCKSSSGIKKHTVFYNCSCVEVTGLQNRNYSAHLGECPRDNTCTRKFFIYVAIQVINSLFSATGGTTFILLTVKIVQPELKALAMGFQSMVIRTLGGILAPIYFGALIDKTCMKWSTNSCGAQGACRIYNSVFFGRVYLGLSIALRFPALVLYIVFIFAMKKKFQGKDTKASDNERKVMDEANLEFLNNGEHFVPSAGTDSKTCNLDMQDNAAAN
The data set is described as follows: (§1) TP_TRANSPORTER: uptake in Xenopus laevis oocytes. The note with it: Xenopus laevis oocytes expressing the transporter. The format is functional, cell-based, Oocyte.

Data set [2] has as its target T2, Solute carrier organic anion transporter family member 2B1 (Homo sapiens, UniProt O94956).
T2 sequence (O94956 whole entry): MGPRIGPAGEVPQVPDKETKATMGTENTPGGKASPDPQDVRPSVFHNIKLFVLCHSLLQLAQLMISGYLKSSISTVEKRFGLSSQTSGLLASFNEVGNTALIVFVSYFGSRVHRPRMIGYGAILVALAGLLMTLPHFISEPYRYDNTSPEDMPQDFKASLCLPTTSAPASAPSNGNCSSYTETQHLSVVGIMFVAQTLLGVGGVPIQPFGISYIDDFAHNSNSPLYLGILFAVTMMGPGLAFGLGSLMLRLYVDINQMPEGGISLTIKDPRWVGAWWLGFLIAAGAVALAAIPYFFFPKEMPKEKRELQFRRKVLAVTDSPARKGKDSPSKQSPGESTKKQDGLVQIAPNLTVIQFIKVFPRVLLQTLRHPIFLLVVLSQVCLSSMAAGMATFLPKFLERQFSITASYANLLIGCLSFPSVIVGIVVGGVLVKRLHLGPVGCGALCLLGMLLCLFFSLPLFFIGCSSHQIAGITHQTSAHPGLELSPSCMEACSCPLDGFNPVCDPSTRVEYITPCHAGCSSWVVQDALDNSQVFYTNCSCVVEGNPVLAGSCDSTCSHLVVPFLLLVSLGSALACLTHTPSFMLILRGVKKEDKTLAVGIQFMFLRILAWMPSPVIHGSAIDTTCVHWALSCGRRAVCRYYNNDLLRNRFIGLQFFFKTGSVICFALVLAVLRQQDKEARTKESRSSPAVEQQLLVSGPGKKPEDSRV
The description is as §1. The data set is classed as functional, cell-based. The conditions noted are these: oocyte.

Data set [3] deals with T3, Solute carrier organic anion transporter family member 1A2 (Homo sapiens, UniProt P46721).
T3 sequence (P46721 whole entry): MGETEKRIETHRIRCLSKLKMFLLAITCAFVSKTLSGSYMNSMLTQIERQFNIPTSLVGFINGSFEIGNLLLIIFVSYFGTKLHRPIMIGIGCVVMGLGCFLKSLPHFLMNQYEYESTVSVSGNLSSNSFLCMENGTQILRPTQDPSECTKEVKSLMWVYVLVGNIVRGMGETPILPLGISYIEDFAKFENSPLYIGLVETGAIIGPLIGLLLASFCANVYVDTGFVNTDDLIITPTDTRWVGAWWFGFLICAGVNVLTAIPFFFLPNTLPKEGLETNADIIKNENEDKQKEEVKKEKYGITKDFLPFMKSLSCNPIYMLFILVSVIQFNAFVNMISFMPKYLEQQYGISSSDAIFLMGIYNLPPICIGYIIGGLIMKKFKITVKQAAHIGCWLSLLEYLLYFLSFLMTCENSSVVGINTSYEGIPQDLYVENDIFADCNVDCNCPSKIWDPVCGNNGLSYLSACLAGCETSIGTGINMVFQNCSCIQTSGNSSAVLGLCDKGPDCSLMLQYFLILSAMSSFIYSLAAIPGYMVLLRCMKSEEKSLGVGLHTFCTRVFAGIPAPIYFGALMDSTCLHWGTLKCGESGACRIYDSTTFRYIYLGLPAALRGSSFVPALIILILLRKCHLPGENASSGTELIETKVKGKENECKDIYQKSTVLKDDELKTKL
The data set is described as §1. The format is functional, cell-based. The note with it: oocyte.

Data set [4] has as its target T4, Solute carrier organic anion transporter family member 1B1 (Homo sapiens, UniProt Q9Y6L6).
T4 sequence (Q9Y6L6 whole entry): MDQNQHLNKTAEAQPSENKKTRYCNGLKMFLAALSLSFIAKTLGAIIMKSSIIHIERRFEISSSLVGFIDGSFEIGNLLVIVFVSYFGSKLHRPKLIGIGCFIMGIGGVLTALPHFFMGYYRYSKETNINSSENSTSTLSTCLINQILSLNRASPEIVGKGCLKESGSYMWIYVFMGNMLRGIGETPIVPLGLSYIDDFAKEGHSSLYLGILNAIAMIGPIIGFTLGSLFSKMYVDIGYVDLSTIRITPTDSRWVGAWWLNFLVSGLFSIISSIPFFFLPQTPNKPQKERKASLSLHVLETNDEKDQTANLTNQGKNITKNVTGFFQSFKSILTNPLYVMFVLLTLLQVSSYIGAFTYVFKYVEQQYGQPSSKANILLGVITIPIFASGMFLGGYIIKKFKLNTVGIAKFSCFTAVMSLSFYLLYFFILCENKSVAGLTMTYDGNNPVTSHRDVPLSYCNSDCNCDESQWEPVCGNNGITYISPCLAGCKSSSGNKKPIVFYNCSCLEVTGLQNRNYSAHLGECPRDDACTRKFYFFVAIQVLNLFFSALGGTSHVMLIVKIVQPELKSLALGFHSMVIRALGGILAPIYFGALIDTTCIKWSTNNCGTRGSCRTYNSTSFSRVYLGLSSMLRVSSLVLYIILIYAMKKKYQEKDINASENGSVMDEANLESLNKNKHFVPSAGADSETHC
The data set is described as follows: (§2) TP_TRANSPORTER: inhibition of BSP uptake in Xenopus laevis oocytes. The data set is classed as functional, cell-based, Oocyte.

For data set [5], the target named is T3, Solute carrier organic anion transporter family member 1A2. The description is as §2. The data set is classed as functional, cell-based, Oocyte.
Data set [6] deals with T5, Solute carrier organic anion transporter family member 1B3 (Homo sapiens, UniProt Q9NPD5).
T5 sequence (Q9NPD5 whole entry): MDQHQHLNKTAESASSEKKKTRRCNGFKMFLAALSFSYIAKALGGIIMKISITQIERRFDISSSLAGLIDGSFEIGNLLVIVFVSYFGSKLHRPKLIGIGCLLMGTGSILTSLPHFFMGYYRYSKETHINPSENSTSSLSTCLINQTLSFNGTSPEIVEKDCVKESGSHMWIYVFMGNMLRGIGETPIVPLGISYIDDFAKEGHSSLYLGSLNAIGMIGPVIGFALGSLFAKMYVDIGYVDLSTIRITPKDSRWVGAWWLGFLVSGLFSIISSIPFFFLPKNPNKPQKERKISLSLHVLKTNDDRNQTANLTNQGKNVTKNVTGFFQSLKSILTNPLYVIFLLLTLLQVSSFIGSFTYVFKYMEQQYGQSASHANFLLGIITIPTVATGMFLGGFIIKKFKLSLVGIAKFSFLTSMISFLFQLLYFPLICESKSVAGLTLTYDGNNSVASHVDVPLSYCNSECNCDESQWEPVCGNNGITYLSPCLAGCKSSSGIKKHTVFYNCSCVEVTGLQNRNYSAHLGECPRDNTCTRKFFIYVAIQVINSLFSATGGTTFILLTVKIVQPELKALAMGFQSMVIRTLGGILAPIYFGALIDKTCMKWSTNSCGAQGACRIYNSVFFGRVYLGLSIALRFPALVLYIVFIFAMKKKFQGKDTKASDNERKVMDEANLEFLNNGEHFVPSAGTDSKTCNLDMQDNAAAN
The description is as §2. The format is functional, cell-based, Oocyte.

For data set [7], the target named is T2, Solute carrier organic anion transporter family member 2B1. The data set is described as §2. The data set is classed as functional, cell-based, Oocyte.
Substrate in data set [8]: CO[C@H]1/C=C/O[C@@]2(C)Oc3c(C)c(O)c4c(O)c(c(/C=N/N5CCN(C)CC5)c(O)c4c3C2=O)NC(=O)/C(C)=C\C=C\[C@H](C)[C@H](O)[C@@H](C)[C@@H](O)[C@@H](C)[C@H](OC(C)=O)[C@@H]1C
Described as §1. The format is functional, cell-based, Oocyte.

Turning to `CO[C@H]1/C=C/O[C@@]2(C)Oc3c(C)c(O)c4c(O)c(c(/C=N/N5CCN(C)CC5)c(O)c4c3C2=O)NC(=O)/C(C)=C\C=C\[C@H](C)[C@H](O)[C@@H](C)[C@@H](O)[C@@H](C)[C@H](OC(C)=O)[C@@H]1C` [RIFAMPIN], the Km in data set [1] came to 2.3 µM. Further, the Activity entry in data set [2] and in data set [3] was “is not a substrate [-]” throughout. The figures for the Ki in data set [4], in data set [5] and in data set [6] were 17 µM, 51 µM and 5 µM, respectively.

Regarding `CO[C@H]1/C=C/O[C@@]2(C)Oc3c(C)c(O)c4c(O)c(cc(O)c4c3C2=O)NC(=O)/C(C)=C\C=C\[C@H](C)[C@H](O)[C@@H](C)[C@@H](O)[C@@H](C)[C@H](OC(C)=O)[C@@H]1C` [RIFAMYCIN], the Ki stood at 3 µM in data set [7], 2 µM in data set [4], 11 µM in data set [5] and 3 µM in data set [6].

B1: Solute carrier organic anion transporter family member 1B1 (Homo sapiens) (protein)
chain: MDQNQHLNKTAEAQPSENKKTRYCNGLKMFLAALSLSFIAKTLGAIIMKSSIIHIERRFEISSSLVGFIDGSFEIGNLLVIVFVSYFGSKLHRPKLIGIGCFIMGIGGVLTALPHFFMGYYRYSKETNINSSENSTSTLSTCLINQILSLNRASPEIVGKGCLKESGSYMWIYVFMGNMLRGIGETPIVPLGLSYIDDFAKEGHSSLYLGILNAIAMIGPIIGFTLGSLFSKMYVDIGYVDLSTIRITPTDSRWVGAWWLNFLVSGLFSIISSIPFFFLPQTPNKPQKERKASLSLHVLETNDEKDQTANLTNQGKNITKNVTGFFQSFKSILTNPLYVMFVLLTLLQVSSYIGAFTYVFKYVEQQYGQPSSKANILLGVITIPIFASGMFLGGYIIKKFKLNTVGIAKFSCFTAVMSLSFYLLYFFILCENKSVAGLTMTYDGNNPVTSHRDVPLSYCNSDCNCDESQWEPVCGNNGITYISPCLAGCKSSSGNKKPIVFYNCSCLEVTGLQNRNYSAHLGECPRDDACTRKFYFFVAIQVLNLFFSALGGTSHVMLIVKIVQPELKSLALGFHSMVIRALGGILAPIYFGALIDTTCIKWSTNNCGTRGSCRTYNSTSFSRVYLGLSSMLRVSSLVLYIILIYAMKKKYQEKDINASENGSVMDEANLESLNKNKHFVPSAGADSETHC
On to B1, for which, in data set [8], the Km was found to be 13 µM.
